Earlier results, collected in paper PMC6611794, “Development of a high-throughput strategy for discovery of potent analogues of antibiotic lysocin E” (Nature Communications, 2019).

Tested on: S. aureus
Parameters: method as in PMID 25485686
Conditions: S. aureus-infected mice; cited from earlier work
Description: Lysocin E (1, Fig. 1a) was isolated from Lysobacter sp. as a new antibiotic and structurally determined to be a 37-membered depsipeptide (molecular weight = 1618 Da) with an N-methylated amide and ester linkages. The macrocyclic core of 12 residues contains four different non-proteinogenic D-amino acids (D-Arg-2/7, N-Me-D-Phe-5, D-Gln-9, D-Trp-10) and is appended with (R)-3-hydroxy-5-methylhexanamide. […] Screening of the additives ind ...

CN[C@H](CC(C)C)C(=O)N[C@H]1C(=O)N[C@@H](CC(N)=O)C(=O)N[C@H]2C(=O)N[C@H]3C(=O)N[C@H](C(=O)N[C@H](C(=O)O)c4cc(O)cc(O)c4-c4cc3ccc4O)[C@H](O)c3ccc(c(Cl)c3)Oc3cc2cc(c3O[C@@H]2O[C@H](CO)[C@@H](O)[C@H](O)[C@H]2O[C@H]2C[C@](C)(N)[C@H](O)[C@H](C)O2)Oc2ccc(cc2Cl)[C@H]1O [vancomycin, reference compound]
ED50: 5.8 mg/kg
